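Exposure lasted 48 hours, with cells grown in 96-well plates and compounds tested at five concentrations. GI50 is the concentration that inhibits growth by half.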 The source made the active and inactive calls. Rule as the data show it: active = GI50 up to about 1.1 µM and inactive = higher.

Among the test systems are HCT-15; MCF7; TK-10; NCI-H226; SNB-19; MOLT-4; SF-268; HOP-62; M14; OVCAR-5; HOP-92; NCI-H460; IGROV-1; ACHN; EKVX; PC-3; HCT-116; CCRF-CEM; SF-539; SR.
Common to all, as to test: inhibition of tumour cell growth, NCI panel, 48 h

As for `CC(C)CN(CC#N)CC(C)C`, the GI50 with HCT-15 was more than 100 µM; in the experiment with MCF7, > 100 µM (inactive); in the experiment with TK-10, > 100 µM (inactive); in the experiment on NCI-H226 it was > 100 µM (inactive); in the experiment on SNB-19, > 100 µM (inactive); in the experiment with MOLT-4 it was > 100 µM (inactive). Moreover, the GI50 with SF-268, in the experiment with HOP-62, in the experiment with M14, with OVCAR-5, with HOP-92 and with NCI-H460 was > 100 µM (inactive) throughout. The GI50 with IGROV-1, in the experiment on ACHN, in the experiment on EKVX, in the experiment with PC-3 and in the experiment with HCT-116 was > 100 µM (inactive) each time.

Turning to `CC(CC(C#N)(c1ccccc1)c1ccccc1)N1CCCCC1` (centres undefined), the GI50 was 23.6 µM (inactive) in the experiment on CCRF-CEM; 22.9 µM in the experiment on HCT-15; 26.5 µM (inactive) in the experiment on MCF7; 20.6 µM (inactive) with TK-10; 20.7 µM (inactive) with NCI-H226; 80.5 µM (inactive) in the experiment with SNB-19. Also, the GI50 in the experiment on MOLT-4 was 22.4 µM (inactive); in the experiment with SF-268 it was 48.9 µM (inactive); in the experiment on HOP-62 it was 29.2 µM (inactive); with M14 it was 19 µM (inactive); with OVCAR-5, 33.1 µM (inactive); with HOP-92 it was 31.9 µM (inactive). The GI50 is 16 µM (inactive) with NCI-H460; 43.2 µM (inactive) in the experiment with IGROV-1; 43.7 µM (inactive) in the experiment on ACHN; 23.8 µM (inactive) with EKVX; 32.6 µM (inactive) in the experiment with PC-3; 19.9 µM (inactive) in the experiment with HCT-116.

On to `COc1ccc2nccc(/C=C/c3ccc(N(C)C)cc3)c2c1`, for which the GI50 in the experiment on CCRF-CEM was 5.66 µM (inactive); with HCT-15, more than 10 µM; in the experiment with MCF7 it was > 10 µM (inactive); with TK-10, > 10 µM (inactive); in the experiment with NCI-H226, > 10 µM (inactive); in the experiment with SNB-19 it was > 10 µM (inactive). Moreover, the GI50 in the experiment with MOLT-4 was 8.18 µM (inactive); with SF-268, > 10 µM (inactive); in the experiment on HOP-62, > 10 µM (inactive); in the experiment on M14, > 10 µM (inactive); in the experiment with OVCAR-5, > 10 µM (inactive); in the experiment on HOP-92 it was > 10 µM (inactive). Also, the GI50 in the experiment with SF-539, with NCI-H460, in the experiment with IGROV-1, in the experiment with ACHN, with EKVX and with PC-3 was > 10 µM (inactive) throughout. For the same compound, in the experiment on HCT-116, the GI50 is 8.59 µM (inactive).

Regarding `N/N=C(\N)SCCCCCCCCCCS/C(N)=N/N`, the GI50 in the experiment with CCRF-CEM was 17.2 µM (inactive); in the experiment with HCT-15 it was 14.3 µM; with MCF7, 23.6 µM (inactive); in the experiment on SR, 13.2 µM (inactive); with TK-10, 20.3 µM (inactive); with NCI-H226, 27 µM (inactive). In addition, the GI50 in the experiment on SNB-19 is 40.7 µM (inactive); in the experiment with SF-268, 30.3 µM (inactive); with HOP-62, 40.5 µM (inactive); in the experiment on M14, 29.4 µM (inactive); in the experiment on OVCAR-5 it was 45.4 µM (inactive); in the experiment on SF-539, 29.6 µM (inactive). In addition, the GI50 was 15.9 µM (inactive) with NCI-H460; 18.7 µM (inactive) with IGROV-1; 20.7 µM (inactive) in the experiment on ACHN; 31.1 µM (inactive) with EKVX; 34.6 µM (inactive) with PC-3; 26.8 µM (inactive) in the experiment with HCT-116.

Take `C/C(=N\c1ccc(Cl)cc1)c1ccncc1`: the GI50 was 1.22 µM (inactive) in the experiment on CCRF-CEM; 0.36 µM with HCT-15; 32.4 µM (inactive) in the experiment with MCF7; > 100 µM (inactive) with NCI-H226; > 100 µM (inactive) in the experiment with SNB-19; 3.4 µM (inactive) with MOLT-4. In addition, the GI50 in the experiment with SF-268 is 53.5 µM (inactive); in the experiment on HOP-62 it was > 100 µM (inactive); with M14 it was > 100 µM (inactive); with OVCAR-5, > 100 µM (inactive); with HOP-92, > 100 µM (inactive); with SF-539, 4.31 µM (inactive). Also, the GI50 is > 100 µM (inactive) with NCI-H460; 0.233 µM (active) in the experiment on ACHN; 27.9 µM (inactive) in the experiment with EKVX; > 100 µM (inactive) in the experiment with PC-3; > 100 µM (inactive) in the experiment on HCT-116.

`CC1=C(C)C1[N+](=O)[O-]`: the GI50 is > 100 µM (inactive) in the experiment on CCRF-CEM; more than 100 µM in the experiment on HCT-15; > 100 µM (inactive) in the experiment with MCF7; > 100 µM (inactive) in the experiment on TK-10; > 100 µM (inactive) in the experiment on NCI-H226; > 100 µM (inactive) in the experiment on SNB-19. Besides, the GI50 in the experiment on MOLT-4, with SF-268, in the experiment on HOP-62, with M14, in the experiment with OVCAR-5 and in the experiment on HOP-92 was > 100 µM (inactive) each time. Also, the GI50 with SF-539, with NCI-H460, in the experiment on IGROV-1, in the experiment on ACHN, in the experiment on EKVX and with PC-3 was > 100 µM (inactive) in each case. Also, the GI50 with HCT-116 is > 100 µM (inactive).

For `CSC1=C(C#N)C(=O)N(c2ccc(C)cc2)C(=S)C1C#N` (centres undefined), the GI50 in the experiment on CCRF-CEM was > 100 µM (inactive); in the experiment with HCT-15, more than 100 µM; in the experiment with MCF7, > 100 µM (inactive); with TK-10, > 100 µM (inactive); in the experiment with NCI-H226, > 100 µM (inactive); in the experiment with SNB-19, > 100 µM (inactive). Further, the GI50 with MOLT-4 is > 100 µM (inactive); with SF-268, > 100 µM (inactive); with HOP-62, > 100 µM (inactive); with M14, > 100 µM (inactive); in the experiment with OVCAR-5 it was > 100 µM (inactive); in the experiment with HOP-92, 33.4 µM (inactive). For the same compound, the GI50 in the experiment on SF-539, in the experiment with NCI-H460, with IGROV-1, in the experiment with ACHN, in the experiment with EKVX and with PC-3 was > 100 µM (inactive) throughout. For the same compound, the GI50 in the experiment on HCT-116 was > 100 µM (inactive).

Turning to `CCOP(=O)(OCC)/C(=C/c1cccs1)CC(C)=O`, the GI50 in the experiment on CCRF-CEM was > 100 µM (inactive); in the experiment on HCT-15, more than 100 µM; in the experiment on MCF7 it was > 100 µM (inactive); in the experiment on TK-10, > 100 µM (inactive); with NCI-H226, > 100 µM (inactive); in the experiment on SNB-19 it was > 100 µM (inactive). Further, the GI50 in the experiment on MOLT-4 was 9.71 µM (inactive); with SF-268, > 100 µM (inactive); with HOP-62 it was > 100 µM (inactive); with M14 it was > 100 µM (inactive); in the experiment with OVCAR-5 it was > 100 µM (inactive); in the experiment on HOP-92, > 100 µM (inactive). For the same compound, the GI50 in the experiment on SF-539, in the experiment on NCI-H460, with IGROV-1, with ACHN, in the experiment with EKVX and in the experiment on PC-3 was > 100 µM (inactive) in each case. The GI50 in the experiment with HCT-116 was > 100 µM (inactive).

Consider `CC1(CCCO)CCCCCCCCCC(C)(CCCO)C1=O` (centres undefined), for which the GI50 was 55 µM (inactive) in the experiment with CCRF-CEM; more than 100 µM in the experiment with HCT-15; > 100 µM (inactive) in the experiment with MCF7; > 100 µM (inactive) with NCI-H226; > 100 µM (inactive) with SNB-19; > 100 µM (inactive) with MOLT-4. Also, the GI50 in the experiment with SF-268, with HOP-62, in the experiment with M14, with OVCAR-5, in the experiment with HOP-92 and in the experiment on NCI-H460 was > 100 µM (inactive) throughout. In addition, the GI50 with IGROV-1 is > 100 µM (inactive); in the experiment with ACHN it was > 100 µM (inactive); in the experiment with EKVX, > 100 µM (inactive); in the experiment with PC-3, > 100 µM (inactive); in the experiment with HCT-116 it was 94 µM (inactive).

Consider `[O-][N+]1=NC(c2ccccc2)=C1c1ccccc1`, for which the GI50 in the experiment with CCRF-CEM was > 50 µM (inactive); with HCT-15, more than 50 µM; in the experiment on MCF7, > 50 µM (inactive); in the experiment with TK-10, > 50 µM (inactive); with NCI-H226 it was > 50 µM (inactive); in the experiment with SNB-19, > 50 µM (inactive). Also, the GI50 in the experiment with MOLT-4, in the experiment with SF-268, with HOP-62, with M14, in the experiment with OVCAR-5 and in the experiment on HOP-92 was > 50 µM (inactive) throughout. Moreover, the GI50 with SF-539, with NCI-H460, in the experiment with IGROV-1, with ACHN, in the experiment on EKVX and with PC-3 was > 50 µM (inactive) throughout. Further, in the experiment with HCT-116, the GI50 is > 50 µM (inactive).

As for `Clc1cc2nnn(C3CCCO3)c2cc1Cl` (centres undefined), the GI50 in the experiment on CCRF-CEM is > 100 µM (inactive); with HCT-15, more than 100 µM; with MCF7, > 100 µM (inactive); with SR it was 45.8 µM (inactive); with TK-10 it was > 100 µM (inactive); with NCI-H226 it was > 100 µM (inactive). The GI50 with MOLT-4 was 83.6 µM (inactive); in the experiment with SF-268 it was > 100 µM (inactive); in the experiment on HOP-62, > 100 µM (inactive); in the experiment with M14 it was > 100 µM (inactive); in the experiment with OVCAR-5, > 100 µM (inactive); in the experiment with SF-539, > 100 µM (inactive). The GI50 in the experiment with NCI-H460 is > 100 µM (inactive); with IGROV-1 it was > 100 µM (inactive); in the experiment with EKVX, 66.1 µM (inactive); in the experiment on PC-3, > 100 µM (inactive); in the experiment on HCT-116, > 100 µM (inactive).

(Values after ChEMBL document CHEMBL1201862, “PubChem BioAssay data set” (2004).)
